What all share (assay): SIRT1 inhibition assay, OAcADPr mass spectrometry
Holding throughout (assay type): biochemical

Assay [1] has as its target T1, full-length hSIRT1 Q222A (Homo sapiens, UniProt Q96EB6, Q222A).
T1 construct: The following point mutants of full-length hSIRT1 were generated; made in house
T1 sequence (Q96EB6 1-747 Q222A): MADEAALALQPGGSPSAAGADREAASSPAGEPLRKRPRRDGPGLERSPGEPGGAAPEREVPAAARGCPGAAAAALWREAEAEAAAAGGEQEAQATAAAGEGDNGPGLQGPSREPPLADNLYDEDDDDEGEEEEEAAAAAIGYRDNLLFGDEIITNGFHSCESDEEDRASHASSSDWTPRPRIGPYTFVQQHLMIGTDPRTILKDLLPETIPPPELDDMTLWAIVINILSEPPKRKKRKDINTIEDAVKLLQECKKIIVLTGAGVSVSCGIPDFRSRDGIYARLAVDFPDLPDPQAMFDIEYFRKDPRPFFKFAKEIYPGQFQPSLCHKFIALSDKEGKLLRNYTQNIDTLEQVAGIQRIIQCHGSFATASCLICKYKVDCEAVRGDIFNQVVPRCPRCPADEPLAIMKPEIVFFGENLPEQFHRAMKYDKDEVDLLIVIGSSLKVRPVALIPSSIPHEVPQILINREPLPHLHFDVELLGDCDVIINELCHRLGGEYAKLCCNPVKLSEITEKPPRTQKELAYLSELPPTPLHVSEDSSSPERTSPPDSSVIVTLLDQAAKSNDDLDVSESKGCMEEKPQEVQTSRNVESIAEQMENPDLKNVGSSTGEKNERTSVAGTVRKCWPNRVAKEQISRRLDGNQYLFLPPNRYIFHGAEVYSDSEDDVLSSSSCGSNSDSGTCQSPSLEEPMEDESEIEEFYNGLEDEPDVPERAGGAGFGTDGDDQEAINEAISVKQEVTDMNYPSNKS

The target in assay [2] is T2, full-length hSIRT1 I223A (Homo sapiens, UniProt Q96EB6, I223A).
T2 construct: The following point mutants of full-length hSIRT1 were generated; His6 (C); made in house
T2 sequence (Q96EB6 1-747 I223A): T1 sequence (Q96EB6 1-747 Q222A) with A222Q, I223A

Assay [3] concerns the target T3, full-length hSIRT1 E230A (Homo sapiens, UniProt Q96EB6, E230A).
T3 construct: His6 (C); made in house
T3 sequence (Q96EB6 1-747 E230A): T1 sequence (Q96EB6 1-747 Q222A) with A222Q, E230A

For orientation: IC50 means the midpoint of a concentration-inhibition curve.

Changes are numbered by the printed parent chain. Where a name gives a salt, the structure may show the parent alone.

As for `CCCC[C@H](NC(=O)[C@H](CC(C)C)NC(=O)[C@H](CCCCNC(=O)C(F)(F)F)NC(=O)[C@H](CCCCN)NC(=O)[C@H](Cc1c[nH]cn1)NC(=O)[C@H](CCCNC(=N)N)NC(C)=O)C(=O)N[C@@H](Cc1ccccc1)C(N)=O` [TFA-p53 7-mer, Ac-RHK-K^TFA-L-Nle-F-NH2], the IC50 is 630 ± 50 nM in assay [1], 540 ± 150 nM in assay [2] and 1300 ± 400 nM in assay [3].

Values taken from patent US9765075B2, “Substituted bridged urea analogs as sirtuin modulators” (GLAXOSMITHKLINE LLC, priority 2013, dated 2017).
